Results from PMC4774911, “Biochemical Screening of Five Protein Kinases from Plasmodium falciparum against 14,000 Cell-Active Compounds” (PLoS ONE, 2016).
Values joined by “and” are separate entries in the source; they are usually repeats but may differ in a detail not shown here. Equal values may be shown once.

Tests used:
Test in all cases: biochemical
PRKD3 = target: T1, PRKD3 (Homo sapiens, UniProt O94806)
T1 sequence (O94806 1-890): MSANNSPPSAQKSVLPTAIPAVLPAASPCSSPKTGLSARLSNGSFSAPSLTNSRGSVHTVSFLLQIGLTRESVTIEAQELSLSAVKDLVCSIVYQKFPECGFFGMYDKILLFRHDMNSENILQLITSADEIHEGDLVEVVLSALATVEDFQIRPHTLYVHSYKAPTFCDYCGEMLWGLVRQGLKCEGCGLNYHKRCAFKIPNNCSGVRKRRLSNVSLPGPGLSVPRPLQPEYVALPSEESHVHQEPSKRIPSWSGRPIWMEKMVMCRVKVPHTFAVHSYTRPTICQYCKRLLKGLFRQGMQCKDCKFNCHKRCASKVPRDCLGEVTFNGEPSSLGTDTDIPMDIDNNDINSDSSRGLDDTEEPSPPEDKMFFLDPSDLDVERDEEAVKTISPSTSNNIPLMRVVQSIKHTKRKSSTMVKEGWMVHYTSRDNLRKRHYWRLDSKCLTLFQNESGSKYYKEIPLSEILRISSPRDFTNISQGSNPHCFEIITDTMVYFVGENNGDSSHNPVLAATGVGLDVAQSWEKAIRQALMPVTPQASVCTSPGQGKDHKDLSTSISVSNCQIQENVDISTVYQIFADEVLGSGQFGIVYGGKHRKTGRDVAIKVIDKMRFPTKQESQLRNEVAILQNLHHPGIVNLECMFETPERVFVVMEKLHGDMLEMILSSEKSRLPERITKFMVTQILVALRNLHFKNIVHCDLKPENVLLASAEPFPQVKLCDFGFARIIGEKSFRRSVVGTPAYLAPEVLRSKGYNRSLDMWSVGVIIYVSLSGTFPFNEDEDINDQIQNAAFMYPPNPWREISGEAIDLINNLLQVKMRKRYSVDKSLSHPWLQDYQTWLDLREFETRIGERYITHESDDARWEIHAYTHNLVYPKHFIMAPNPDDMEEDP

PLK4 = target: T2, PLK4 (Homo sapiens, UniProt O00444)
T2 sequence (O00444 1-970): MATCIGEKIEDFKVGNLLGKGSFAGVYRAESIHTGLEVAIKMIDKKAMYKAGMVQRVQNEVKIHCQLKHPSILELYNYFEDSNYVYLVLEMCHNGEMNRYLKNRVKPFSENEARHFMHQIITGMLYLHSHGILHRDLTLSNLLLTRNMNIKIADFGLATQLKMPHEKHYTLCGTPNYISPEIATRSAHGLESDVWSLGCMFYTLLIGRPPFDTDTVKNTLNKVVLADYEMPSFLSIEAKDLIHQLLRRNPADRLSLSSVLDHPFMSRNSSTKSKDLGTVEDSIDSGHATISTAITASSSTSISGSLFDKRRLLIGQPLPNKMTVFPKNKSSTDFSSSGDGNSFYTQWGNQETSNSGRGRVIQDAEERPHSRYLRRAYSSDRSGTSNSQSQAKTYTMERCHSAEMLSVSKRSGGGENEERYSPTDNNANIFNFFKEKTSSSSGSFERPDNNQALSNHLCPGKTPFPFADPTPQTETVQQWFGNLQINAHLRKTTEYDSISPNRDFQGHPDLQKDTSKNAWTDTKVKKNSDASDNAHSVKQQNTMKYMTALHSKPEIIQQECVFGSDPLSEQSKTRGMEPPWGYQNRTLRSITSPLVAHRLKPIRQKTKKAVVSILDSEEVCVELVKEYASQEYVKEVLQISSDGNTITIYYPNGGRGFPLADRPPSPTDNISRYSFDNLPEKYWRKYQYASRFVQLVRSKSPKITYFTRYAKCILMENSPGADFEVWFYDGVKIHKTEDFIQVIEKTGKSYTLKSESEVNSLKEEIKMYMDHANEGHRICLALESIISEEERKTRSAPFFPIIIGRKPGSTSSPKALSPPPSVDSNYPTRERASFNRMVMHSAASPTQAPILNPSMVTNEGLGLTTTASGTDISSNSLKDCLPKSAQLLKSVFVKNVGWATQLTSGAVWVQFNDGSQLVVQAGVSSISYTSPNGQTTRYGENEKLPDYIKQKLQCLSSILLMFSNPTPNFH

LATS1 = target: T3, LATS1 (Homo sapiens, UniProt O95835)
T3 sequence (O95835 1-1130): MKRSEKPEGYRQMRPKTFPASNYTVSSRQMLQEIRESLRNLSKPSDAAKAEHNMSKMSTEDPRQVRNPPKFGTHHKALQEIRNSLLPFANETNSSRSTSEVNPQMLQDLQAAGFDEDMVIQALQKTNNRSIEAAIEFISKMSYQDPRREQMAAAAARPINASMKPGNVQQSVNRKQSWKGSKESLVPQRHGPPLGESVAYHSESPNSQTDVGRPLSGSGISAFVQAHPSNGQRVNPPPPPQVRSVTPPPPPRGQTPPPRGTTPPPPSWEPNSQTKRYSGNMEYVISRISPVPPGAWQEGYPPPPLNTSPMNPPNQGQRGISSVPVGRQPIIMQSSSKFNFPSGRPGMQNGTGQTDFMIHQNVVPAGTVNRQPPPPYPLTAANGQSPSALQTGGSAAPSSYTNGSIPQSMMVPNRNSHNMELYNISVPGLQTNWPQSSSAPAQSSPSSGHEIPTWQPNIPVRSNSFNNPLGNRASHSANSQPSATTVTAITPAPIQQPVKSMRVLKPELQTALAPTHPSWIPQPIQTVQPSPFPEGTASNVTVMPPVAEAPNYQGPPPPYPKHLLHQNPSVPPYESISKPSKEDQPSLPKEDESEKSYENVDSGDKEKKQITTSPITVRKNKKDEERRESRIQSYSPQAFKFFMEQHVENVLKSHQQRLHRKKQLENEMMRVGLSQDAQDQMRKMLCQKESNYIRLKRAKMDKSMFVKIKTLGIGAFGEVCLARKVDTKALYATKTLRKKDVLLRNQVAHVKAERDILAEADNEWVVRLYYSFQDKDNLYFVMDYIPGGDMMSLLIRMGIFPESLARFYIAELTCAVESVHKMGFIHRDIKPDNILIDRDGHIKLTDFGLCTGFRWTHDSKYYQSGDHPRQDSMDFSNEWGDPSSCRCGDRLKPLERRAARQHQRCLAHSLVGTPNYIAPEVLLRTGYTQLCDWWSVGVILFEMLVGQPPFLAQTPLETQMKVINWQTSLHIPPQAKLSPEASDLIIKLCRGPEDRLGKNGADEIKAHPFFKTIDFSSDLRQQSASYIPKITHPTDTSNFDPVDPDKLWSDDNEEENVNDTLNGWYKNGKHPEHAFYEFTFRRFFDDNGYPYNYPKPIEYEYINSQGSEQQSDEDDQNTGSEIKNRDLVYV

Compound: CN1CCN(c2ccc(Nc3ncc(C#N)c(Nc4ccccc4C(N)=O)n3)cc2)CC1.Cl [TCMDC-134116]
- IC50 (PRKD3): 370 nM
- IC50 (PLK4): 210 nM and 270 nM
- IC50 (LATS1): 210 nM

Compound: Cl.NCC1(c2nc(-c3ccc(Cl)c(O)c3)c(-c3ccncc3)[nH]2)CCCCC1 [TCMDC-141154]
- IC50 (PRKD3): 8700 nM
- IC50 (PLK4): > 20000 nM
- IC50 (LATS1): 1100 nM

Compound: CN(C)CC(O)COc1ccc(Nc2ncc([N+](=O)[O-])c(Nc3ccccc3O)n2)cc1.O=C(O)C(F)(F)F (stereo not drawn) [TCMDC-141399]
- IC50 (PRKD3): 9100 nM and 7600 nM
- IC50 (PLK4): > 20000 nM
- IC50 (LATS1): > 20000 nM
